Consider 34 compounds from patent EP4818158A1, “BIARYL COMPOUND” (Kissei Pharmaceutical Co., Ltd., priority 2023, dated 2025).

pIC50: −log10 of the molar value.

The experiment deals with T1, human TSHR (Homo sapiens, UniProt P16473).
T1 construct: expressed in transfected cells
T1 sequence (P16473 21-764): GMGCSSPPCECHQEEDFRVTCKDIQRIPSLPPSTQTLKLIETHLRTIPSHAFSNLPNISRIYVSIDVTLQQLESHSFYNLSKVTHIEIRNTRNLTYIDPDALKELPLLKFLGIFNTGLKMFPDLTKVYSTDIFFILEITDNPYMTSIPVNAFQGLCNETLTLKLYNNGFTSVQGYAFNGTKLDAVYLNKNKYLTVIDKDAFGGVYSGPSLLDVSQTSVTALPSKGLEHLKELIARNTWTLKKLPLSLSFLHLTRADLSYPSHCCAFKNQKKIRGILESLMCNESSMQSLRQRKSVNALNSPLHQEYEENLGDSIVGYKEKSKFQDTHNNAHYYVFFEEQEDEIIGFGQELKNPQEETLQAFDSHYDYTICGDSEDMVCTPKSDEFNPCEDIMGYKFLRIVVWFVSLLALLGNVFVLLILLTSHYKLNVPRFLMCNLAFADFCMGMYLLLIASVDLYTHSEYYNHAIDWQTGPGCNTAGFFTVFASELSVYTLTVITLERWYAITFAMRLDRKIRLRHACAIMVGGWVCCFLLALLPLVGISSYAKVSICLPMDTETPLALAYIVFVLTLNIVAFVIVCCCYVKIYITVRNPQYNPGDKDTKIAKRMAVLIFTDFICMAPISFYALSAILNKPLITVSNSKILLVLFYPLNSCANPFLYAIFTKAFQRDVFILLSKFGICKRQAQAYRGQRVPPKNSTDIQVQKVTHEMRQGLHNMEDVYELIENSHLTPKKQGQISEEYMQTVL
Kind of experiment: Antagonist activity using TSH-induced cAMP generation in human TSHR-stably expressing CHO cells. The experiment is classed as cell-based. Particulars: human TSH 50 ng/mL. The procedure:
Measurement of antagonist activity using TSH-induced cAMP generation in human TSHR-stably expressing CHO cells as an indicator
The gene sequence (reference number: NM_000369.2) of a human TSHR was inserted into multiple cloning sites of pcDNA3.1 (+). Prepared plasmid vectors were introduced into CHO cells using a lipofection method, and human TSHR-stably expressing CHO cells were established. Obtained cells were seeded in a 96-well poly-D-lysine-coated plate at 5 × 10^4 cells/well and cultured in an F12 culture medium containing 10%FBS, 400 µg/mL of G418, 50 U/mL of penicillin, and 50 µg/mL of streptomycin under conditions of 37°C and 5% CO2 for one day. After the culture medium was removed, the cells were washed twice with 100 µL of an assay buffer solution (Hanks' Balanced Salt Solution containing 20 mM HEPES and 1 mM IBMX) per well. 30 µL of a test compound-containing assay buffer solution was added to the well and incubated at room temperature for 15 minutes. Next, 30 µL of an assay buffer solution containing human TSH (final concentration: 50 ng/mL, R&D Systems, Inc.) was added thereto and incubated at 37°C for one hour. A supernatant was removed, a Lysis and Detection Buffer 2(Cisbio) was added thereto, and the mixture was incubated at room temperature for one hour to prepare a cell lysate. According to the instruction manual of a cAMP Gs HiRange kit (Cisbio), the cell lysate, d2-labeled cAMP, and anti-cAMP Europium Cryptate labeled antibodies (Cisbio) were reacted together in a 384-well white microplate. Next, fluorescence intensity ratios (measurement wavelengths: 665 nm/620 nm) were measured using a multi-plate reader (PHERAstar FSX, BMG LABTECH, Japan). The fluorescence intensity ratio of each sample was converted to a cAMP content using a standard curve. The cAMP content was converted as a percentage of the control value to calculate a cAMP generation rate. The cAMP generation rates were plotted against the test compound concentrations using Prism (Graph Pad Software Inc.) to calculate IC50 values. The IC50's of the individual test compounds are shown in the above tables. In the tables, IC50 < 0.3 µM was denoted as A, and 0.3 µM ≤ IC50 < 30 µM was denoted as B. Cases where the IC50 values were not calculated for test compounds from which activity was recognized are denoted as C.
`NC(=O)CCc1ncccc1-c1ccc(NC(=O)OC2CC(F)(F)C2)c(F)c1C(=O)c1ccccc1C(F)(F)F` [Example E-9, 3,3-Difluorocyclobutyl (4-(2-(3-amino-3-oxopropyl)pyridin-3-yl)-2-fluoro-3-(2-(trifluoromethyl)benzoyl)phenyl)carbamate] showed a pIC50 of 4.52 to 6.52. The result for `CC(C)(CO)OC(=O)Nc1ccc(-c2cccnc2CNC(N)=O)c(Cc2ccccc2F)c1F` [Example A-21, 1-Hydroxy-2-methylpropan-2-yl (2-fluoro-3-(2-fluorobenzyl)-4-(2-(ureidomethyl)pyridin-3-yl)phenyl)carbamate] reads 4.52 to 6.52; that for `CC(C)(C)OC(=O)Nc1ccc(-c2cccnc2CNC(N)=O)c(Cc2ncccc2F)c1F` [Example F-1, tert-Butyl (2-fluoro-3-((3-fluoropyridin-2-yl)methyl)-4-(2-(ureidomethyl)pyridin-3-yl)phenyl)carbamate], 4.52 to 6.52. With `NC(=O)NCc1ncccc1-c1ccc(NC(=O)OCC2CC2)c(F)c1Cc1ccccc1F` [Example A-31, Cyclopropylmethyl (2-fluoro-3-(2-fluorobenzyl)-4-(2-(ureidomethyl)pyridin-3-yl)phenyl)carbamate], the pIC50 is > 6.52. Next, `CC(C)(OC(=O)Nc1ccc(-c2cccnc2CNC(N)=O)c(Cc2ccccc2C#N)c1F)C(F)F` [Example A-37, 1,1-Difluoro-2-methylpropan-2-yl (3-(2-cyanobenzyl)-2-fluoro-4-(2-(ureidomethyl)pyridin-3-yl)phenyl)carbamate]: 4.52 to 6.52; `CC(C)(C)OC(=O)Nc1ccc(-c2ccnnc2CNC(N)=O)c(Cc2ccccc2F)c1F` [Example C-1, tert-Butyl (2-fluoro-3-(2-fluorobenzyl)-4-(3-(ureidomethyl)pyridazin-4-yl)phenyl)carbamate]: > 6.52; `CC(C)(C)OC(=O)Nc1ccc(-c2cccnc2CCC(N)=O)c(Cc2ccccc2S(C)(=O)=O)c1F` [Example A-40, tert-Butyl (4-(2-(3-amino-3-oxopropyl)pyridin-3-yl)-2-fluoro-3-(2-(methylsulfonyl)benzyl)phenyl)carbamate]: 4.52 to 6.52. The result for `CC1(C(=O)Nc2ccc(-c3cccnc3CNC(N)=O)c(Cc3ccccc3F)c2F)CC1` [Example G-1, N-(2-Fluoro-3-(2-fluorobenzyl)-4-(2-(ureidomethyl)pyridin-3-yl)phenyl)-1-methylcyclopropane-1-carboxamide] reads 4.52 to 6.52; that for `CC(C)(C)OC(=O)Nc1ccc(-c2cccnc2CNC(N)=O)c(Cc2ccccc2C#N)c1F` [Example A-2, tert-Butyl (3-(2-cyanobenzyl)-2-fluoro-4-(2-(ureidomethyl)pyridin-3-yl)phenyl)carbamate], 4.52 to 6.52; that for `CC(C)(C)OC(=O)Nc1ccc(-c2cccnc2CNC(N)=O)c(Cc2ccc(F)cc2)c1F` [Example A-16], > 6.52. The result for `CC(C)(C)OC(=O)Nc1ccc(-c2cccnc2CNC(N)=O)c(C(=O)c2ccccc2C(F)(F)F)c1F` [Example E-2] reads 4.52 to 6.52; that for `COC[C@H](C)OC(=O)Nc1ccc(-c2cccnc2CNC(N)=O)c(Cc2ccccc2F)c1F` [Example A-25, (S)-1-Methoxypropan-2-yl (2-fluoro-3-(2-fluorobenzyl)-4-(2-(ureidomethyl)pyridin-3-yl)phenyl)carbamate], 4.52 to 6.52.

The compound `NC(=O)NCc1ncccc1-c1ccc(NC(=O)OC2CN3CCC2CC3)c(F)c1Cc1ccccc1F` (stereo not shown) [Example A-29, (2-Fluoro-3-(2-fluorobenzyl)-4-(2-(ureidomethyl)pyridine-3-yl)phenyl)carbamate quinuclidine-3-yl] showed a pIC50 of 4.52 to 6.52. In the case of `NC(=O)NCc1ncccc1-c1ccc(NC(=O)OCC2CC(F)(F)C2)c(F)c1Oc1ccccc1F` [Example B-4], the negative logarithm of the IC50 (pIC50) is > 6.52.

For the compound `CC(O)c1ncccc1-c1ccc(NC(=O)OC(C)(C)C)cc1Oc1ccccc1` (stereo not shown) [Example B-7, tert-Butyl (4-(2-(1-hydroxyethyl)pyridine-3-yl)-3-phenoxyphenyl)carbamate], the pIC50 was < 4.52. The result for `NC(=O)NCc1ncccc1-c1ccc(NC(=O)OCC2(C(F)F)CC2)c(F)c1Cc1ccccc1F` [Example A-34] reads > 6.52. With `CC(C)(C)OC(=O)Nc1ccc(-c2cccnc2CNC(N)=O)c(CN2CC3CCC(C2)O3)c1F` [Example F-7, tert-Butyl (3-((8-oxa-3-azabicyclo[3.2.1]octan-3-yl)methyl)-2-fluoro-4-(2-(ureidomethyl)pyridin-3-yl)phenyl)carbamate], the negative-log IC50 (pIC50) was 4.52 to 6.52. Next, `C[C@H](OC(=O)Nc1ccc(-c2cccnc2CNC(N)=O)c(Cc2ccccc2F)c1F)C(F)(F)F` [Example A-23]: > 6.52; `NC(=O)CCc1nnccc1-c1ccc(NC(=O)O[C@H]2C[C@H](F)C2)c(F)c1Cc1ccccc1F` [Example C-7, trans-3-Fluorocyclobutyl (4-(3-(3-amino-3-oxopropyl)pyridazin-4-yl)-2-fluoro-3-(2-fluorobenzyl)phenyl)carbamate]: 4.52 to 6.52; `NC(=O)NCc1ncccc1-c1ccc(NC(=O)OC2CCOC2)c(F)c1Cc1ccccc1F` (stereo not shown) [Example A-28]: 4.52 to 6.52. The result for `CC(c1ccccc1)c1cc(NC(=O)OC(C)(C)C)ccc1-c1cccnc1/C=C/C(N)=O` (stereo not shown) [Example A-11, tert-Butyl (E)-(4-(2-(3-amino-3-oxopropan-1-en-1-yl)pyridin-3-yl)-3-(1-phenylethyl)phenyl)carbamate] reads 4.52 to 6.52; that for `NC(=O)NCc1ncccc1-c1ccc(NC(=O)OCC2CCOC2)c(F)c1Cc1ccccc1F` (stereo not shown) [Example A-35], > 6.52. Compound `CON(C(=O)Nc1ccc(-c2cccnc2CNC(N)=O)c(Cc2ccccc2F)c1F)C1CCCC1` [Example G-9, 1-Cyclopentyl-3-(2-fluoro-3-(2-fluorobenzyl)-4-(2-(ureidomethyl)pyridin-3-yl)phenyl)-1-methoxyurea] had a pIC50 of 4.52 to 6.52. Next, `CC(C)(C)OC(=O)Nc1ccc(-c2cccnc2CCC(N)=O)c(Cc2ncccc2F)c1F` [Example F-2, tert-Butyl (4-(2-(3-amino-3-oxopropyl)pyridin-3-yl)-2-fluoro-3-((3-fluoropyridin-2-yl)methyl)phenyl)carbamate]: 4.52 to 6.52; `C[C@H]1CN(Cc2c(-c3cccnc3CNC(N)=O)ccc(NC(=O)OC(C)(C)C)c2F)CCO1` [Example F-5, tert-Butyl (S)-(2-fluoro-3-((2-methylmorpholino)methyl)-4-(2-(ureidomethyl)pyridin-3-yl)phenyl)carbamate]: < 4.52; `NC(=O)NCc1ncccc1-c1ccc(NC(=O)C2CCCO2)c(F)c1Cc1ccccc1F` (stereo not shown) [Example G-5]: 4.52 to 6.52.

With `CC(C)(C#N)COC(=O)Nc1ccc(-c2cccnc2CNC(N)=O)c(Cc2ccccc2F)c1F` [Example A-7], the pIC50 is > 6.52. Next, `NC(=O)NCc1ncccc1-c1ccc(NC(=O)NC2CCCC2)c(F)c1Cc1ccccc1F` [Example G-8, 1-Cyclopentyl-3-(2-fluoro-3-(2-fluorobenzyl)-4-(2-(ureidomethyl)pyridin-3-yl)phenyl)urea]: > 6.52; `C[C@H](OC(=O)Nc1ccc(-c2ccnnc2CNC(N)=O)c(Cc2ccccc2F)c1F)C(F)(F)F` [Example C-2, (S)-1,1,1-Trifluoropropan-2-yl (2-fluoro-3-(2-fluorobenzyl)-4-(3-(ureidomethyl)pyridazin-4-yl)phenyl)carbamate]: > 6.52. The result for `NC(=O)NCc1ncccc1-c1ccc(NC(=O)OC2CCC(F)(F)C2)c(F)c1Cc1ccccc1F` (stereo not shown) [Example A-27, 3,3-Difluorocyclopentyl (2-fluoro-3-(2-fluorobenzyl)-4-(2-(ureidomethyl)pyridin-3-yl)phenyl)carbamate] reads > 6.52; that for `NC(=O)CCc1ncccc1-c1ccc(NC(=O)OC2CC(F)(F)C2)c(F)c1C(=O)c1ccccc1F` [Example E-6], 4.52 to 6.52. Next, `CC(C)(C)OC(=O)Nc1ccc(-c2cccnc2CNC(N)=O)c(C(=O)N2CCOCC2)c1F` [Example F-8, tert-Butyl (2-fluoro-3-(morpholine-4-carbonyl)-4-(2-(ureidomethyl)pyridin-3-yl)phenyl)carbamate]: < 4.52; `CC(C)(C)OC(=O)Nc1ccc(-c2cccnc2CCC(N)=O)c(C(=O)c2ccccc2F)c1F` [Example E-3, tert-Butyl (4-(2-(3-amino-3-oxopropyl)pyridin-3-yl)-2-fluoro-3-(2-fluorobenzoyl)phenyl)carbamate]: > 6.52; `CC(C)(C)OC(=O)Nc1ccc(-c2nccnc2CCC(N)=O)c(Cc2ccccc2)c1F` [Example H-1, tert-Butyl (4-(3-(3-amino-3-oxopropyl)pyrazin-2-yl)-3-benzyl-2-fluorophenyl)carbamate]: 4.52 to 6.52.
